{"source": "paper PMC4201456", "about": "“Cytoxicity and Apoptotic Mechanism of Ruthenium(II) Amino Acid Complexes in Sarcoma-180 Tumor Cells” (PLoS ONE, 2014)", "key": {"S180 tumor cells [1]": {"tested_on": "S180 tumor cells", "test": "MTT cell viability assay, S180 tumor cells", "assay_type": "cell-based, murine", "conditions": "S180 tumor cell line, 48 h", "experimental": "The murine sarcoma-180 tumor cells (S180) (ATCC# TIB-66) and normal murine fibroblast cells (L-929) (ATCC# CCL-1) were cultured in suspension in RPMI 1640 and DMEM media (Sigma Chemical Co., MO), respectively, supplemented with 10% fetal calf serum, 100 µg/mL penicillin, and 100 µg/mL streptomycin. The cultures were incubated in a humidified incubator (Thermo Scientific) at 37°C with 5% CO2.\nThe cytotoxic effects of the amino acid ruthenium complexes were evaluated using an MTT assay with S180 tumor cells and L929 normal cells as described previously. Briefly, 1.0×10^5 S180 cells and 2.0×10^4 L929 cells were plated in 96-well tissue culture plates and treated with different concentrations of amino acid ruthenium complexes (0.2–200 µM) for 48 h. After treatment, 10 µL of MTT (5 mg mL^−1) was added to each well, and the plates were incubated at 37°C for an additional 3 h. The purple formazan crystals were dissolved in 50 µL of SDS, and the absorbance was determined at 545 nm using a Stat Fax 2100 microplate reader (Awareness Technology, Palm City, FL, USA). The cell viability was calculated as follows: viability (%) = (absorbance of the treated wells)/(absorbance of the control wells) ×100. The IC50 (complex concentration (µM) that results in a 50% reduction in cellular viability) was obtained from dose-response curves using GraphPad Prism 4.02 for Windows (GraphPad Software, San Diego, CA, USA)."}, "S180 tumor cells [2]": {"tested_on": "S180 tumor cells", "test": "Annexin V-FITC/PI double staining, flow cytometry", "assay_type": "cell-based, murine", "experimental": "The cell death of S180 tumor cells was examined using the Annexin V-FITC Apoptosis Detection Kit (BD Biosciences) according to the manufacturer's instructions. S180 cells were treated with complex 2 (40 µM and 60 µM) for 24 h and 48 h. Briefly, 5.0×10^5 cells were harvested and washed with PBS. The cells were re-suspended in 400 µL of binding buffer. Next, 5 µL of Annexin V-FITC and 1 µL of PI were added. Flow cytometric analysis was performed immediately after supravital staining. Data acquisition and analysis were performed on a flow cytometer (FACSCalibur, BD Biosciences) using Cell Quest software. The criteria for positivity in cells in early stages of apoptosis were Annexin V-positive and PI-negative, whereas the criteria for cells in the late stages of apoptosis were both Annexin V-positive and PI-positive."}, "caspase-3": {"tested_on": "caspase-3", "test": "Caspase activity colorimetric assay (DEVD-pNA)", "assay_type": "cell-based, murine", "conditions": "S180 cells, 24 h, control 100%", "experimental": "(§1) Direct measurement of the activity of caspases 3, 8, and 9 were performed using the ApoTarget Caspase 3, 8, and 9 Protease Assay (Invitrogen) according to the manufacturer's recommendations. After treatment with complex 2 (40 µM and 60 µM) for 24 h, the cells were lysed with chilled cell lysis buffer. The protein concentration was then measured using the BSA Protein Assay Kit (BioRad). An aliquot of the protein extract (75 µg) was mixed with 50 µL of 2X reaction buffer supplemented with 10 mM DTT and the substrates of DEVD-pNA (caspase-3), IETD-pNA (caspase-8), or LEHD-pNA (caspase-9). The mixtures were then incubated for 2 h at 37°C. Subsequently, the formation of p-nitroanilide in the samples was measured using an ELISA microplate reader at 405 nm. The increases in the activities of caspase-3, caspase-8, and caspase-9 were determined by comparing the results with the control."}, "caspase-8": {"tested_on": "caspase-8", "test": "Caspase activity colorimetric assay (IETD-pNA)", "assay_type": "cell-based, murine", "conditions": "S180 cells, 40 µM, 24 h; control 100%", "experimental": "as §1"}, "caspase-9": {"tested_on": "caspase-9", "test": "Caspase activity colorimetric assay (LEHD-pNA)", "assay_type": "cell-based, murine", "conditions": "S180 cells, 40 µM, 24 h; control 100%", "experimental": "as §1"}, "bax": {"tested_on": "bax", "test": "Real-time RT-PCR gene expression, bax", "assay_type": "cell-based, murine", "conditions": "S180 cells, 40 µM, 6 h; normalized to β-actin", "experimental": "(§2) The S180 cells were treated with 40 µM complex 2 for 6 h. Total RNA was extracted with Trizol reagent (Sigma-Aldrich, USA) following the manufacturer's protocol. Total RNA (2.0 µg) was used to produce complementary DNA (cDNA) with random primers (Applied Biosystems, USA) in a 20 µL reaction mixture according to the manufacturer's protocol.\n(§3) Real-time PCR was carried out using a Line Gene K (Bioer Technology) instrument. Real-time PCR reactions were carried out in a 20 µL reaction mixture, including 2 µL of cDNA, 10 µL of SYBR Green PCR Master Mix (LGC Biotechnology, UK), and 2.0 µL of 400 nM forward and reverse primers. The PCR program was initiated at 95°C for 15 min followed by 40 cycles of 95°C for 15 s, 55°C for 15 s, and 72°C for 30 s. The data were analyzed according to the comparative Ct method and were normalized to the β-actin reference gene expression in each sample."}, "caspase 3": {"tested_on": "caspase 3", "test": "Real-time RT-PCR gene expression, caspase 3", "assay_type": "cell-based, murine", "conditions": "S180 cells, 40 µM, 6 h; normalized to β-actin", "experimental": "as §2, §3"}, "caspase 9": {"tested_on": "caspase 9", "test": "Real-time RT-PCR gene expression, caspase 9", "assay_type": "cell-based, murine", "conditions": "S180 cells, 40 µM, 6 h; normalized to β-actin", "experimental": "as §2, §3"}, "pBR322 plasmid DNA": {"tested_on": "pBR322 plasmid DNA", "test": "Atomic force microscopy of plasmid DNA", "assay_type": "binding", "conditions": "incubated 24 h at 37°C", "experimental": "For the atomic force microscopy (TMAFM) experiment, the pBR322 plasmid was heated at 60°C for 10 minutes to obtain the OC form. The concentration of the stock solution was 1 mg/mL in HEPES buffer (4 mM HEPES (pH 7.4) and 2 mM MgCl2. Each sample contained 1 µL of pBR322 plasmid at a concentration of 0.25 µg/µL in a final volume of 40 µL. The amount of complex 2 added is expressed as ri. AFM samples were prepared by casting a 3 µL drop of test solution onto freshly cleaved muscovite green mica disks as the support. The drop was allowed to stand undisturbed for 3 minutes to favor the adsorbate-substrate interaction. Each DNA-laden disk was rinsed with Milli-Q water and was blown dry with clean compressed argon gas directed normal to the disk surface. The samples were stored over silica prior to AFM imaging. All AFM observations were made with a Nanoscope III Multimode AFM (Digital Instruments, Santa Barbara, CA). Nanocrystalline Si cantilevers ([…] in length) with an average spring constant of 50 N/m terminating in conical-shaped Si probe tips (10 nm apical radius and cone angle of 35°) were utilized. High-resolution topographic AFM images of 2×2 µm areas of different specimens were obtained in air at room temperature (relative humidity <40%). The AFM was operated in intermittent contact mode at a rate of 1–3 Hz."}}, "data": [{"smiles": "F[P-](F)(F)(F)(F)F.NCC(=O)[O-].[Ru+2].c1ccc(-c2ccccn2)nc1.c1ccc(P(CCCCP(c2ccccc2)c2ccccc2)c2ccccc2)cc1", "note": "[Complex 2, [Ru(gly)(bipy)(dppb)]PF6]", "values": [{"measurement": "IC50", "setting": "S180 tumor cells [1]", "result": "31.2 ± 4.19", "unit": "µM"}, {"measurement": "cells in early apoptosis (Annexin V+ and PI-)", "setting": "S180 tumor cells [2]; 40 µM, 24 h", "result": 19.76, "unit": "%"}, {"measurement": "cells in late apoptosis (Annexin V+ and PI+)", "setting": "S180 tumor cells [2]; 40 µM, 24 h", "result": 22.76, "unit": "%"}, {"measurement": "cells in early apoptosis (Annexin V+ and PI-)", "setting": "S180 tumor cells [2]; 40 µM, 48 h", "result": 42.59, "unit": "%"}, {"measurement": "cells in late apoptosis (Annexin V+ and PI+)", "setting": "S180 tumor cells [2]; 40 µM, 48 h", "result": 25.16, "unit": "%"}, {"measurement": "cells in early apoptosis (Annexin V+ and PI-)", "setting": "S180 tumor cells [2]; 60 µM, 24 h", "result": 22.48, "unit": "%"}, {"measurement": "cells in late apoptosis (Annexin V+ and PI+)", "setting": "S180 tumor cells [2]; 60 µM, 24 h", "result": 31.67, "unit": "%"}, {"measurement": "cells in early apoptosis (Annexin V+ and PI-)", "setting": "S180 tumor cells [2]; 60 µM, 48 h", "result": 47.48, "unit": "%"}, {"measurement": "cells in late apoptosis (Annexin V+ and PI+)", "setting": "S180 tumor cells [2]; 60 µM, 48 h", "result": 30.24, "unit": "%"}, {"measurement": "activity of caspase-3", "setting": "caspase-3; 40 µM", "result": 136.05, "unit": "%"}, {"measurement": "activity of caspase-3", "setting": "caspase-3; 60 µM", "result": 170.24, "unit": "%"}, {"measurement": "activity of caspase-8", "setting": "caspase-8", "result": 127.22, "unit": "%"}, {"measurement": "activity of caspase-9", "setting": "caspase-9", "result": 176.43, "unit": "%"}, {"measurement": "expression level of the bax gene compared to untreated control", "setting": "bax", "result": 2.75, "unit": "fold"}, {"measurement": "expression level of caspase 3 compared to control", "setting": "caspase 3", "result": 2.55, "unit": "fold"}, {"measurement": "expression level of caspase 9 compared to control", "setting": "caspase 9", "result": 1.83, "unit": "fold"}, {"measurement": "interaction with pBR322 plasmid DNA (AFM images)", "setting": "pBR322 plasmid DNA", "result": "did not covalently bind to DNA bases or intercalate between bases"}]}]}
